The nature of data set [1]: Antiproliferative activity against human PC9IR cells assessed as reduction in cell viability incubated for 72 hrs by SRB assay. It is filed as functional, cell-based. Background: Sulforhodamine B stains cellular protein and so reports cell mass.
The subject of another data set is CL1-0. As to the kind of experiment: Antiproliferative activity against human CL1-0 cells assessed as reduction in cell viability incubated for 72 hrs by SRB assay. Type of data set: functional, cell-based. The following applies: CL1-0, 72 h.
Data set [2] can be described thus: Antiproliferative activity against human CL1-5 cells assessed as reduction in cell viability incubated for 72 hrs by SRB assay. Type of data set: functional, cell-based. The following applies: CL1-5, 72 h.
Data set [3] has as its system NCI-H1975. As to the kind of experiment: Antiproliferative activity against human NCI-H1975 cells assessed as reduction in cell viability incubated for 72 hrs by SRB assay. To be noted: NCI-H1975, 72 h. It is filed as functional, cell-based.
The nature of data set [4]: Selectivity index, ratio of IC50 for human bronchial epithelial cells to IC50 for human PC9 cells. Type of data set: toxicity. The following applies: human bronchial epithelial cells versus PC9 cells, read-out: Ratio IC50.
In data set [5] the test system is NCI-H1975. As to the kind of experiment: Antitumor activity against human NCI-H1975 cells xenografted in athymic nude BALB/c mouse assessed as tumor growth at 1 mg/kg, ip administered for 4 weeks (reference value: 1217 +/- 516.6 cu.mm). It is filed as functional.
Data set [6] deals with NCI-H1975. As to the kind of experiment: Antitumor activity against human NCI-H1975 cells xenografted in athymic nude BALB/c mouse assessed as tumor growth inhibition at 1 mg/kg, ip administered for 4 weeks relative to control. It is filed as functional. To be noted: 672 h, read-out: TGI.
Data set [7] can be described thus: Toxicity in athymic nude BALB/c mouse xenografted with human NCI-H1975 cells assessed as effect on kidney at 1 or 4 mg/kg, ip administered for 4 weeks. Type of data set: organism-based. The following applies: in vivo, 672 h.
Data set [8] concerns the target DNA replication licensing factor MCM2 (Homo sapiens) (UniProt P49736). As to the kind of experiment: Induction of ubiquitination of MCM2 in human H3255 cells incubated for 24 hrs by immunoblot analysis. Type of data set: cell-based. The following applies: NCI-H3255. A general note: In western blotting, separated proteins are transferred to a membrane and probed.
Data set [9] addresses DNA replication licensing factor MCM7 (Homo sapiens) (UniProt P33993). As to the kind of experiment: Induction of ubiquitination of MCM7 in human PC9 cells incubated for 24 hrs by immunoblot analysis. The following applies: PC-9. It is filed as cell-based.
For data set [10], the target named is DNA replication licensing factor MCM2 (Homo sapiens) (UniProt P49736). As to the kind of experiment: Induction of ubiquitination of MCM2 in human NCI-H1975 cells incubated for 48 hrs by immunoblot analysis (reference value: 1). Type of data set: cell-based.
Sequence of DNA replication licensing factor MCM2 (Homo sapiens) (P49736 whole entry): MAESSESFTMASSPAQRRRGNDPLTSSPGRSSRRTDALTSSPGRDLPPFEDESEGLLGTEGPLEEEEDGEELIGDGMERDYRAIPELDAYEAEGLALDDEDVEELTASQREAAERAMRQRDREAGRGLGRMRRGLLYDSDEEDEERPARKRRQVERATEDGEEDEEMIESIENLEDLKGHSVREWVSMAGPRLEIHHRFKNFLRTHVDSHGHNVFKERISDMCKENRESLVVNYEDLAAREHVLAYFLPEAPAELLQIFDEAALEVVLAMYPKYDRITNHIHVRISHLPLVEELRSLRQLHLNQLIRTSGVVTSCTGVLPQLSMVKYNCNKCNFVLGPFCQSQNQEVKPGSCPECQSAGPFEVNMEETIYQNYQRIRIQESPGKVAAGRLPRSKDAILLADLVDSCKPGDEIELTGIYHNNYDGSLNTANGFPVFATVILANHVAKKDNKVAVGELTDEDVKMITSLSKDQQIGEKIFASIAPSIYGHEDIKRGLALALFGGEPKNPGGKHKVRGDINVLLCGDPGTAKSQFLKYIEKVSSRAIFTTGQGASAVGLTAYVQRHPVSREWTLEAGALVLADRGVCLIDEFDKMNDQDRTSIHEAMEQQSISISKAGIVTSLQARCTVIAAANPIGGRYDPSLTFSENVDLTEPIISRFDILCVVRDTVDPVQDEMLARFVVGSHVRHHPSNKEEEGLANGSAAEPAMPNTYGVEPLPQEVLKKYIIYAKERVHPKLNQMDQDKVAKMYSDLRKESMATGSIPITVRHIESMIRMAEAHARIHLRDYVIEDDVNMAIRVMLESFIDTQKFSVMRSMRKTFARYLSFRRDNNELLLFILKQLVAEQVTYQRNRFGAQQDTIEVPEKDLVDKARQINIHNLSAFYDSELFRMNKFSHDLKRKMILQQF
The target of data set [11] is T1, DNA replication licensing factor MCM5 (Homo sapiens) (UniProt P33992).
T1 sequence (whole entry): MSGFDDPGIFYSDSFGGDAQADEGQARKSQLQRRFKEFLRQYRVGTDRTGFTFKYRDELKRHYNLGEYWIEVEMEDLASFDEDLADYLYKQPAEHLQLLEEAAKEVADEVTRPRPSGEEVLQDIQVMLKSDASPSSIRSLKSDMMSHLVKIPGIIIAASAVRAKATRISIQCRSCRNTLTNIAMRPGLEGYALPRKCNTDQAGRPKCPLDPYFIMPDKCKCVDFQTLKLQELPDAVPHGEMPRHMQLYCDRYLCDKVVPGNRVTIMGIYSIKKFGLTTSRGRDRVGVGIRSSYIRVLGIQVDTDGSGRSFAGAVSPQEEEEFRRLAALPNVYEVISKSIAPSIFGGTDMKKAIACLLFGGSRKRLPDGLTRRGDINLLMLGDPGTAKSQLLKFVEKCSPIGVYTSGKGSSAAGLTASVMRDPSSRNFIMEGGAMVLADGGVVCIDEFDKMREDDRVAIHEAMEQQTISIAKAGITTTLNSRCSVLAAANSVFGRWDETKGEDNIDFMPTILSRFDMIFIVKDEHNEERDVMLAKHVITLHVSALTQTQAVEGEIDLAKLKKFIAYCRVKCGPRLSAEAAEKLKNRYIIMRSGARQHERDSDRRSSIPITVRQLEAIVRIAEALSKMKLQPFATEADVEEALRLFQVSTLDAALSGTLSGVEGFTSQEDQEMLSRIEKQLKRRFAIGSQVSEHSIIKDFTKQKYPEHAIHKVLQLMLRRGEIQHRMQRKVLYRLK
As to the kind of experiment: Induction of ubiquitination of MCM5 in human NCI-H1975 cells incubated for 48 hrs by immunoblot analysis (reference value: 1). It is filed as cell-based.

Data set [12] addresses DNA replication licensing factor MCM7 (Homo sapiens) (UniProt P33993). As to the kind of experiment: Induction of ubiquitination of MCM7 in human NCI-H1975 cells in presence of MG132 incubated for 48 hrs followed by MG132 addition and measured after 12 hrs by immunoblot analysis (reference value: 1.6). Type of data set: cell-based.
The target in data set [13] is DNA replication licensing factor MCM2 (Homo sapiens) (UniProt P49736). As to the kind of experiment: Induction of ubiquitination of MCM2 in human NCI-H1975 cells at 140 nM in presence of MG132 incubated for 48 hrs followed by MG132 addition and measured after 12 hrs by immunoblot analysis. It is filed as cell-based.
The target of data set [14] is DNA replication licensing factor MCM7 (Homo sapiens) (UniProt P33993). As to the kind of experiment: Induction of ubiquitination of MCM7 in human NCI-H1975 cells at 140 nM in presence of MG132 incubated for 48 hrs followed by MG132 addition and measured after 12 hrs by immunoblot analysis. It is filed as cell-based.
Sequence of DNA replication licensing factor MCM7 (Homo sapiens) (P33993 whole entry): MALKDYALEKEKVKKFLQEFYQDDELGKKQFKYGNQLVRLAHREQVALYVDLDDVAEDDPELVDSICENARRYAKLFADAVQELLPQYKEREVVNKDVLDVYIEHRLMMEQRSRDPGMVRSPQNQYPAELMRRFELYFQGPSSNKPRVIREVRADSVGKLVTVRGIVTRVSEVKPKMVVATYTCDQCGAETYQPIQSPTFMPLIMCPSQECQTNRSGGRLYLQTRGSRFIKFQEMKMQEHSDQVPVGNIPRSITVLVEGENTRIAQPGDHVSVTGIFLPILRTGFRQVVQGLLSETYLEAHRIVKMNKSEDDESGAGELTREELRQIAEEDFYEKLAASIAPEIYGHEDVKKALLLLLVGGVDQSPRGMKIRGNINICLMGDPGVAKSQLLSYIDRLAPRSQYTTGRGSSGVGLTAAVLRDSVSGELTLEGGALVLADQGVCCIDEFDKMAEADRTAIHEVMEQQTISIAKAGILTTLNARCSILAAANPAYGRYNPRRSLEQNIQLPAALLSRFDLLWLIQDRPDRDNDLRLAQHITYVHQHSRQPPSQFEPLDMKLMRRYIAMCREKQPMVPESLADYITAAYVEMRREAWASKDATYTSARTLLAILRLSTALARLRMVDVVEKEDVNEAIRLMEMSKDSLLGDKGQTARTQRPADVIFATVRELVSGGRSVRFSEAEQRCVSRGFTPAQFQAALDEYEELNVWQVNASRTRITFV
Data set [15] has as its system NCI-H1975. As to the kind of experiment: Antiproliferative activity against human NCI-H1975 cells harboring FLAG-tagged MCM2 assessed as reduction in cell viability incubated for 72 hrs by SRB assay. To be noted: NCI-H1975, 72 h. Type of data set: functional, cell-based.
Data set [16] in a line: Selectivity index, ratio of IC50 for human bronchial epithelial cells to IC50 for human CL1-5 cells. It is filed as toxicity. To be noted: human bronchial epithelial cells versus CL1-5 cells, read-out: Ratio IC50.

The source made the active and inactive calls. No cut-off for these calls is given here.

The source of these data is ChEMBL document CHEMBL4602694, “Suppression of Drug-Resistant Non-Small-Cell Lung Cancer with Inhibitors Targeting Minichromosomal Maintenance Protein” (J Med Chem, 2020).

Usually IC50 stands for the concentration that inhibits the measured activity by half. For `Cc1oc2c(c1C(=O)NCCCn1ccnc1)C(=O)c1ccccc1C2=O`, the IC50 in data set [1] was under 100 nM; in the data set with CL1-0, under 100 nM; in data set [2] it was under 100 nM; in the data set on NCI-H1975 [3] it was 77 nM; in the data set on NCI-H1975 [15], 71 nM. In addition, the selectivity ratio in data set [4] and in data set [16] was over 10 in each case. Further, the Activity in the data set on NCI-H1975 [5] was 701.2 mm3; in [7], “Non-Toxic”; in data set [10] it was 0.4; in data set [11], 0.6; in data set [12] it was 0.7. For the same molecule, the inhibition in vivo at 1 mg/kg in the data set with NCI-H1975 [6] worked out at 44%. The outcome in [8], in data set [9], in data set [13] and in data set [14] was Active.
